“Also recorded” adds a separate entry of the source.
Columns and labels:
Thrombin = Thrombin (Homo sapiens, UniProt P00734); assay: Specificity: inhibition of other proteolytic enzymes; assay type: biochemical
NF-κB/Luc 293 cells = assay: Viability of reporter cells, resazurin, 24 hr; assay type: cell-based, human; conditions: at the EC50 concentration of the luciferase assay
B16-F10 = assay: Cell growth inhibition, resazurin, 48 h; assay type: cell-based, mouse; conditions: B16-F10, 48 h drug exposure
Protocol: RPMI 8226 (CCL-155), HT-29 (HTB-38), and B16-F10 (CRL-6475) cells were purchased from ATCC. RPMI 8226 cells were maintained in RPMI 1640 media supplemented with 10% (v/v) FBS, 2 mM L-glutamine, 1 mM sodium pyruvate and Penicillin/Streptomycin at 100 IU/ml and 100 μg/ml, respectively. HT-29 cells were maintained in McCoys 5A supplemented with 10% (v/v) FBS, 2 mM L-glutamine, 1 mM sodium pyruvate, 1% (v/v) non-essential amino acids, 10 mM HEPES and Penicillin/Streptomycin at 100 IU/ml and 100 μg/ml, respectively. B16-F10 cells were maintained in DMEM supplemented with 10% (v/v) FBS, 2 mM L-glutamine, 10 mM HEPES and Penicillin/Streptomycin at 100 IU/ml and 100 μg/ml, respectively.
RPMI 8226 cells were seeded at 2×10^4 cells/well in 90 μl RPMI media containing 10% (v/v) FBS or 1% (v/v) FBS into 96 well black-walled, clear-bottom tissue culture plates. […] Formulae II-16, II-17 and Formula II-18 were serially diluted in media containing 1% or 10% FBS and added in triplicate to the test wells. […] The final concentration of Formula II-18 ranged from 2 μM to 630 pM.

[1] = Maximum Tolerated Dose (MTD) determination; assay type: in vivo, female BALB/c mice
Text: In vivo studies were designed to determine the MTD of Salinosporamide A when administered intravenously to female BALB/c mice.
Animals were observed daily for clinical signs and were weighed individually twice weekly until the end of the experiment (maximum of 14 days after the last day of dosing).

[2] = tested on: PARP and Pro-Caspase 3 in RPMI 8226 cells; assay: PARP and Pro-Caspase 3 cleavage, western blot; assay type: cell-based, human; conditions: 100 nM for 0, 8 or 24 hours; varying concentrations for 8 hours
Protocol: Total protein lysates were made and 20 μg of the lysates were then resolved under reducing/denaturing conditions and blotted onto nitrocellulose. The blots were then probed with anti-PARP or anti-caspase 3 antibodies followed by stripping and reprobing with an anti-actin antibody.
25 μg of the lysates were then resolved under reducing/denaturing conditions and blotted onto nitrocellulose. The blots were then probed with anti-PARP or anti-caspase 3 antibodies followed by stripping and reprobing with an anti-actin antibody.

[3] = tested on: VEGF-induced migration of multiple myeloma cells; assay: Transwell migration assay; assay type: cell-based
Protocol: The compounds disclosed herein inhibit angiogenesis. […] The other compounds disclosed herein are tested in a transwell migration assay and inhibit migration.

[4] = tested on: 60 human tumor cell lines; assay: NCI screening panel, values over all cell lines; assay type: cell-based
[5] = mean graph midpoint over all cell lines

C[C@@]12OC(=O)[C@]1([C@@H](O)[C@@H]1C=CCCC1)NC(=O)[C@@H]2CCCl [Formula II-16, Salinosporamide A]
EC50 (Thrombin): > 200000 nM
cell viability (NF-κB/Luc 293 cells): did not affect cell viability
EC50 (B16-F10): 47 ± 20 nM
EC50 (B16-F10; Mus musculus, B16-F10, 48 h): 33 nM
well tolerated dose ([1]; i.v. daily for five consecutive days): up to 0.1 mg/kg
tolerated dose ([1]; single intravenous dose): up to 0.25 mg/kg
cleavage of PARP and Pro-Caspase 3 [2]: cleavage of PARP and Pro-caspase 3 in a time-dependent manner; also recorded: dose-dependent cleavage of both PARP and Pro-Caspase 3
VEGF-induced migration of multiple myeloma cells [3]: blocked vascular endothelial growth-factor (VEGF)-induced migration of multiple myeloma cells
GI50 ([4]; Homo sapiens, read-out: mean GI50 value): < 10 nM
Deka Log10 G150 ([4]; log units): 0.00
Deka Log10 TGI ([4]; log units): 1.21
Range Log10 G150 ([4]; log units): 0.00
Range Log10 TGI ([4]; log units): 4.00
MG_MID Log10 G150 [4, 5]: -8.00 Molar
MG_MID Log10 TGI [4, 5]: -6.79 Molar
